Test results reported in patent US9346809B2 (LEO PHARMA A/S, priority 2009, dated 2016).
Where two headings read alike, the source gives them in different places.

Tests used:
Type in all cases: biochemical
[1] = biological target: T1, JAK3 (catalytic domain, His-tag) (Homo sapiens, UniProt P52333); assay: JAK kinase assay (HTRF, phosphorylation of TK substrate-biotin), JAK3; details: ATP at Km (2 μM), read-out: JAK3 kinase inhibitory activity (EC50 indicator)
T1 construct: All four purified enzymes contain only the catalytic domain; His (N); purchased Carna Biosciences, Inc; host or cells: baculovirus expression system
Outline: (§1)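 HTRF KinEASE TK format; 1 μM biotinylated peptide, Km ATP: 7 μM (JAK1, 10 mM MgCl2, 50 nM SEB), 4 μM (JAK2), 2 μM (JAK3), 13 μM (TYK2, 50 nM SEB); 5 mM MgCl2 for the latter three. RT 20-30 min, 0.75% DMSO final. Overnight detection, EC50.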

[2] = biological target: T2, JAK2 (catalytic domain, His-tag) (Homo sapiens, UniProt O60674); assay: JAK kinase assay (HTRF, phosphorylation of TK substrate-biotin), JAK2; details: ATP at Km (4 μM), read-out: JAK2 kinase inhibitory activity (EC50 indicator)
T2 construct: All four purified enzymes contain only the catalytic domain; His (N); purchased Carna Biosciences, Inc; host or cells: baculovirus expression system
Outline: as §1

[3] = biological target: T3, TYK2 (aa 871-1187, catalytic domain, GST-tag) (Homo sapiens, UniProt P29597); assay: JAK kinase assay (HTRF, phosphorylation of TK substrate-biotin), TYK2; details: ATP at Km (13 μM), read-out: TYK2 kinase inhibitory activity (EC50 indicator)
T3 construct: JAK1 (aa 850-1154) and TYK2 (aa 871-1187) are expressed with an N-terminally fused GST-tag; GST (N); purchased Carna Biosciences, Inc; host or cells: baculovirus expression system
T3 sequence (P29597 871-1187): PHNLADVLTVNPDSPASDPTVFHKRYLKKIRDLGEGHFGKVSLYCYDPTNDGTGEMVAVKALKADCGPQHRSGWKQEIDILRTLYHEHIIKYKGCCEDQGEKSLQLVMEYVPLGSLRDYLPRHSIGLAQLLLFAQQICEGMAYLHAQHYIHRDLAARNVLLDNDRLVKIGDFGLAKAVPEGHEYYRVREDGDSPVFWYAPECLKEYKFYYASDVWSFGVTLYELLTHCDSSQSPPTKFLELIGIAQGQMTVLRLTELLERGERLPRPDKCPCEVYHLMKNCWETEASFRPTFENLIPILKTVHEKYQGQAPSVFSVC
Outline: as §1

[4] = biological target: T4, JAK1 (aa 850-1154, catalytic domain, GST-tag) (Homo sapiens, UniProt P23458); assay: JAK kinase assay (HTRF, phosphorylation of TK substrate-biotin), JAK1; details: ATP at Km (7 μM), read-out: JAK1 kinase inhibitory activity (EC50 indicator)
T4 construct: JAK1 (aa 850-1154) and TYK2 (aa 871-1187) are expressed with an N-terminally fused GST-tag; GST (N); purchased Carna Biosciences, Inc; host or cells: baculovirus expression system
Outline: as §1

T4 sequence (P23458 850-1154): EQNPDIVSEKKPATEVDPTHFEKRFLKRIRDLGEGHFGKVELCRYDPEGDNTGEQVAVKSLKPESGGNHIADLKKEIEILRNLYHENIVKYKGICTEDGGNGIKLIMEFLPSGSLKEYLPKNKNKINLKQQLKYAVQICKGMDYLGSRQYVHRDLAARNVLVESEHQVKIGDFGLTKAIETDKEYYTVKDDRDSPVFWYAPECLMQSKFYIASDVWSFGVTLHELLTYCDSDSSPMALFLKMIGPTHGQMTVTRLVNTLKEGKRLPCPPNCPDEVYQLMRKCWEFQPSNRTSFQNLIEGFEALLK
T2 sequence (O60674 849-1124 limits assumed): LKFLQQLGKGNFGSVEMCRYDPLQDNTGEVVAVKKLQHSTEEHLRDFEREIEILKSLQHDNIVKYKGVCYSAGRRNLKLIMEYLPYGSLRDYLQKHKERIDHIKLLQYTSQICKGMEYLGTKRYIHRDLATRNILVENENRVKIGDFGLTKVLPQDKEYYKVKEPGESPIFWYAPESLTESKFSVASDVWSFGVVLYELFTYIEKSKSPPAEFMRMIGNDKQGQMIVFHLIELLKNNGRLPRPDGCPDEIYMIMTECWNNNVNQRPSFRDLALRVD
T1 sequence (P52333 822-1111 limits assumed): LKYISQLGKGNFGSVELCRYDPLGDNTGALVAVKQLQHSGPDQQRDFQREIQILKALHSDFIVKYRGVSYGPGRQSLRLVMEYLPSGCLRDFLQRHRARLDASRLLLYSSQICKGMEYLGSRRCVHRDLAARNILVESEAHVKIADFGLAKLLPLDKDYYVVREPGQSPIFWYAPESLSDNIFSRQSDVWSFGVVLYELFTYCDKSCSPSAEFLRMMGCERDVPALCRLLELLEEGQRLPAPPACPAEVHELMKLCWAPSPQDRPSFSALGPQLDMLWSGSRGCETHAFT

| SMILES | EC50 ([1]; HTRF assay) [nM] | EC50 ([2]; HTRF assay) [nM] | EC50 ([3]; HTRF assay) [nM] | EC50 ([4]; HTRF assay) [nM] | EC50 [1] [nM] | EC50 [2] [nM] | EC50 [3] [nM] | EC50 [4] [nM] |
| --- | --- | --- | --- | --- | --- | --- | --- | --- |
| COc1cc(C(=O)N2CCN(c3ncnc4[nH]ccc34)CC23CC3)cs1 [Example 384, (5-Methoxy-thiophen-3-yl)-[7-(7H-pyrrolo[2,3-d]pyrimidin-4-yl)-4,7-diaza-spiro[2.5]oct-4-yl]-methanone] | < 100 | < 100 | < 100 | < 100 | – | – | – | – |
| O=C(Cc1cccs1)N1CCN(c2ncnc3[nH]ccc23)CC12CC2 [Example 190, 1-[7-(7H-Pyrrolo[2,3-d]pyrimidin-4-yl)-4,7-diaza-spiro[2.5]oct-4-yl]-2-thiophen-2-yl-ethanone] | – | – | – | – | < 100 | < 100 | 100 to 500 | < 100 |
| Cc1ccsc1C(=O)N1[C@@H]2CC[C@@H]1CN(c1ncnc3[nH]ccc13)C2 [Example 243, (3-Methyl-thiophen-2-yl)-[3-(7H-pyrrolo[2,3-d]pyrimidin-4-yl)-3,8-diaza-bicyclo[3.2.1]oct-8-yl]-methanone] | 100 to 500 | < 100 | > 500 | 100 to 500 | – | – | – | – |
| COc1cnc2[nH]ccc2c1N1CCN(C(=O)c2ccc(C#N)c(F)c2)C2(CC2)C1 [Example 292, 2-Fluoro-4-[7-(5-methoxy-1H-pyrrolo[2,3-b]pyridin-4-yl)-4,7-diaza-spiro[2.5]octane-4-carbonyl]-benzonitrile] | 100 to 500 | 100 to 500 | > 500 | > 500 | – | – | – | – |
| N#Cc1ccccc1CC(=O)N1[C@@H]2CC[C@@H]1CN(c1ncnc3[nH]ccc13)C2 [Example 250, 2-{2-Oxo-2-[3-(7H-pyrrolo[2,3-d]pyrimidin-4-yl)-3,8-diaza-bicyclo[3.2.1]oct-8-yl]-ethyl}-benzonitrile] | 100 to 500 | 100 to 500 | > 500 | 100 to 500 | – | – | – | – |
| Cc1ccc2[nH]c(C(=O)N3CCN(c4ncnc5[nH]ccc45)CC34CC4)cc2c1 [Example 184, (5-Methyl-1H-indol-2-yl)-[7-(7H-pyrrolo[2,3-d]pyrimidin-4-yl)-4,7-diaza-spiro[2.5]oct-4-yl]-methanone] | – | – | – | – | < 100 | < 100 | 100 to 500 | < 100 |
| Cn1c(C(=O)N2CCN(c3ncnc4[nH]ccc34)CC23CC3)ccc1S(N)(=O)=O [Example 187, 1-Methyl-5-[7-(7H-pyrrolo[2,3-d]pyrimidin-4-yl)-4,7-diaza-spiro[2.5]octane-4-carbonyl]-1H-pyrrole-2-sulfonic acid amide] | – | – | – | – | < 100 | < 100 | < 100 | < 100 |
| CS(=O)(=O)c1ccc(C(=O)N2[C@@H]3CC[C@@H]2CN(c2ncnc4[nH]ccc24)C3)cc1 [Example 356, (4-Methanesulfonyl-phenyl)-[3-(7H-pyrrolo[2,3-d]pyrimidin-4-yl)-3,8-diaza-bicyclo[3.2.1]oct-8-yl]-methanone] | 100 to 500 | < 100 | > 500 | < 100 | – | – | – | – |
| COc1ccc(C(=O)N2CCN(c3ncnc4[nH]ccc34)CC23CC3)s1 [Example 206, (5-Methoxy-thiophen-2-yl)-[7-(7H-pyrrolo[2,3-d]pyrimidin-4-yl)-4,7-diaza-spiro[2.5]oct-4-yl]-methanone] | < 100 | < 100 | < 100 | < 100 | – | – | – | – |
| O=C(c1cccc2cc(O)ccc12)N1[C@@H]2CC[C@@H]1CN(c1ncnc3[nH]ccc13)C2 [Example 359, (6-Hydroxy-naphthalen-1-yl)-[3-(7H-pyrrolo[2,3-d]pyrimidin-4-yl)-3,8-diaza-bicyclo[3.2.1]oct-8-yl]-methanone] | < 100 | < 100 | 100 to 500 | < 100 | – | – | – | – |
| Cc1ccc(S(N)(=O)=O)cc1C(=O)N1CCN(c2ncnc3[nH]ccc23)CC12CC2 [Example 388, 4-Methyl-3-[7-(7H-pyrrolo[2,3-d]pyrimidin-4-yl)-4,7-diaza-spiro[2.5]octane-4-carbonyl]-benzenesulfonamide] | < 100 | < 100 | > 500 | < 100 | – | – | – | – |
| Cc1c(C(=O)N2CCN(c3ncnc4[nH]ccc34)CC23CC3)sc2ccccc12 [Example 296, (3-Methyl-benzo[b]thiophen-2-yl)-[7-(7H-pyrrolo[2,3-d]pyrimidin-4-yl)-4,7-diaza-spiro[2.5]oct-4-yl]-methanone] | 100 to 500 | < 100 | < 100 | < 100 | – | – | – | – |
| CC1CN(C(=O)Cc2ccc(C#N)cc2)C2(CC2)CN1c1ncnc2[nH]ccc12 (stereo not shown) [Example 147, 4-{2-[6-Methyl-7-(7H-pyrrolo[2,3-d]pyrimidin-4-yl)-4,7-diaza-spiro[2.5]oct-4-yl]-2-oxo-ethyl}-benzonitrile] | – | – | – | – | < 100 | < 100 | < 100 | < 100 |
| O=C(c1cccc(OC(F)(F)F)c1)N1[C@@H]2CC[C@@H]1CN(c1ncnc3[nH]ccc13)C2 [Example 244, [3-(7H-Pyrrolo[2,3-d]pyrimidin-4-yl)-3,8-diaza-bicyclo[3.2.1]oct-8-yl]-(3-trifluoromethoxy-phenyl)-methanone] | < 100 | < 100 | > 500 | < 100 | – | – | – | – |
| O=C(c1ccc(OC(F)(F)F)cc1)N1CCN(c2ccnc3[nH]ccc23)CC12CC2 [Example 238, [7-(1H-Pyrrolo[2,3-b]pyridin-4-yl)-4,7-diaza-spiro[2.5]oct-4-yl]-(4-trifluoromethoxy-phenyl)-methanone] | > 500 | 100 to 500 | > 500 | < 100 | – | – | – | – |
| NS(=O)(=O)c1ccc(C(=O)N2[C@@H]3CC[C@@H]2CN(c2ncnc4[nH]ccc24)C3)cc1 [Example 353, 4-[3-(7H-Pyrrolo[2,3-d]pyrimidin-4-yl)-3,8-diaza-bicyclo[3.2.1]octane-8-carbonyl]-benzenesulfonamide] | < 100 | < 100 | < 100 | < 100 | – | – | – | – |
| O=C(Cc1c[nH]c2ccccc12)N1CCN(c2ncnc3[nH]ccc23)CC12CC2 [Example 14, 2-(1H-Indol-3-yl)-1-[7-(7H-pyrrolo[2,3-d]pyrimidin-4-yl)-4,7-diazaspiro[2.5]oct-4-yl]ethanone] | – | – | – | – | 100 to 500 | < 100 | > 500 | 100 to 500 |
| Cc1c[nH]c2ncnc(N3CCN(C(=O)c4cnc5ccccc5n4)C4(CC4)C3)c12 [Example 120, [7-(5-Methyl-7H-pyrrolo[2,3-d]pyrimidin-4-yl)-4,7-diaza-spiro[2.5]oct-4-yl]-quinoxalin-2-yl-methanone] | – | – | – | – | > 500 | > 500 | > 500 | > 500 |
| COc1cc(C(=O)N2[C@@H]3CC[C@H]2CN(c2ncnc4[nH]ccc24)C3)cs1 [Example 108, (5-Methoxy-thiophen-3-yl)-[3-(7H-pyrrolo[2,3-d]pyrimidin-4-yl)-3,8-diaza-bicyclo[3.2.1]oct-8-yl]-methanone] | – | – | – | – | < 100 | < 100 | > 500 | < 100 |
| CS(=O)(=O)c1ccc2[nH]c(C(=O)N3C4CCC3CN(c3ncnc5[nH]ccc35)C4)cc2c1 [Example 130, (5-Methanesulfonyl-1H-indol-2-yl)-[3-(7H-pyrrolo[2,3-d]pyrimidin-4-yl)-3,8-diaza-bicyclo[3.2.1]oct-8-yl]-methanone] | – | – | – | – | < 100 | < 100 | 100 to 500 | < 100 |
| COC(=O)c1cc2c(N3CCN(C(=O)CCCC#N)C4(CC4)C3)ncnc2[nH]1 [Example 339, 4-[4-(4-Cyano-butyryl)-4,7-diaza-spiro[2.5]oct-7-yl]-7H-pyrrolo[2,3-d]pyrimidine-6-carboxylic acid methyl ester] | > 500 | > 500 | > 500 | > 500 | – | – | – | – |
| N#CC1(C(=O)N2[C@@H]3CC[C@@H]2CN(c2ncnc4[nH]ccc24)C3)CCOCC1 [Example 248, 4-[3-(7H-Pyrrolo[2,3-d]pyrimidin-4-yl)-3,8-diaza-bicyclo[3.2.1]octane-8-carbonyl]-tetrahydro-pyran-4-carbonitrile] | 100 to 500 | < 100 | > 500 | 100 to 500 | – | – | – | – |
